Literature values in PubChem BioAssay AID1259409 (Chemical Carcinogenesis Research Information System (CCRIS), 2018).

System: rodent chemically induced tumor inhibition, incidence and multiplicity
Test: CCRIS tumor inhibitor studies
Conditions: Promoter: NONE USED

## Cc1cc(C(C)(C)C)c(O)c(C(C)(C)C)c1
Carcinogen: N-BIS(2-HYDROXYPROPYL)NITROSAMINE, 53609-64-6, Dose [Inhibitor]: 0, 1% IN DIET FOR 30 WK BEGINNING POST CARCINOGEN TREATMENT (STUDY DURATION: 32 WK), Route [Inhibitor]: ORAL, Species: RAT, Strain/Sex: F344/MALE, Target Tissue: Type of Lesion: LUNG: ADENOMA, Dose [Carcinogen]: 0.1% IN DRINKING WATER FOR 2 WK
  tumour outcome (control, treated, inhibition, significance): 100%, 85%, 15%, not calculated
Carcinogen: N-BIS(2-HYDROXYPROPYL)NITROSAMINE, 53609-64-6, Dose [Inhibitor]: 0, 1% IN DIET FOR 30 WK BEGINNING POST CARCINOGEN TREATMENT (STUDY DURATION: 32 WK), Route [Inhibitor]: ORAL, Species: RAT, Strain/Sex: F344/MALE, Target Tissue: Type of Lesion: LUNG: CARCINOMA, Dose [Carcinogen]: 0.1% IN DRINKING WATER FOR 2 WK
  tumour outcome (control, treated, inhibition, significance): 45%, 5%, 89%, p<0.01
Carcinogen: N-BIS(2-HYDROXYPROPYL)NITROSAMINE, 53609-64-6, Dose [Inhibitor]: 0, 1% IN DIET FOR 30 WK BEGINNING POST CARCINOGEN TREATMENT (STUDY DURATION: 32 WK), Route [Inhibitor]: ORAL, Species: RAT, Strain/Sex: F344/MALE, Target Tissue: Type of Lesion: THYROID: ADENOMA, Dose [Carcinogen]: 0.1% IN DRINKING WATER FOR 2 WK
  tumour outcome (control, treated, inhibition, significance): 5%, 60%, -1100%, not calculated
Carcinogen: N-BIS(2-HYDROXYPROPYL)NITROSAMINE, 53609-64-6, Dose [Inhibitor]: 0, 1% IN DIET FOR 30 WK BEGINNING POST CARCINOGEN TREATMENT (STUDY DURATION: 32 WK), Route [Inhibitor]: ORAL, Species: RAT, Strain/Sex: F344/MALE, Target Tissue: Type of Lesion: THYROID: CARCINOMA, Dose [Carcinogen]: 0.1% IN DRINKING WATER FOR 2 WK
  tumour outcome (control, treated, inhibition, significance): 20%, 15%, 25%, not calculated
Carcinogen: N-METHYL-N'-NITRO-N-NITROSOGUANIDINE, 70-25-7, N-ETHYL-N-HYDROXYETHYLNITROSAMINE, 13147-25-6, N-METHYLBENZYLNITROSAM, Carcinogen: N-METHYL-N'-NITRO-N-NITROSOGUANIDINE, 70-25-7, N-ETHYL-N-HYDROXYETHYLNITROSAMINE, 13147-25-6, N-METHYLBENZYLNITROSAM, Dose [Inhibitor]: 0, 0.7% IN DIET FOR 36 WK (STUDY DURATION: 36 WK), Route [Inhibitor]: ORAL, Species: RAT, Strain/Sex: F344/MALE, Target Tissue: Type of Lesion: COLON: CARCINOMA, Dose [Carcinogen]: 100 MG/KG BW MNNG ONCE, 750 MG/KG BW EHEN ONCE, 0.5 MG/KG BW MBN TWICE, 40 MG/KG BW DMH 4 TIMES, 0.05% DBN IN DRINKING W
  tumour outcome (control, treated, inhibition, significance): 10/18 (56%), 0/18 (0%), 100%, p<0.01
Carcinogen: N-METHYL-N'-NITRO-N-NITROSOGUANIDINE, 70-25-7, N-ETHYL-N-HYDROXYETHYLNITROSAMINE, 13147-25-6, N-METHYLBENZYLNITROSAM, Carcinogen: N-METHYL-N'-NITRO-N-NITROSOGUANIDINE, 70-25-7, N-ETHYL-N-HYDROXYETHYLNITROSAMINE, 13147-25-6, N-METHYLBENZYLNITROSAM, Dose [Inhibitor]: 0, 0.7% IN DIET FOR 36 WK (STUDY DURATION: 36 WK), Route [Inhibitor]: ORAL, Species: RAT, Strain/Sex: F344/MALE, Target Tissue: Type of Lesion: KIDNEY: RENAL CELL TUMOR, Dose [Carcinogen]: 100 MG/KG BW MNNG ONCE, 750 MG/KG BW EHEN ONCE, 0.5 MG/KG BW MBN TWICE, 40 MG/KG BW DMH 4 TIMES, 0.05% DBN IN DRINKING W
  tumour outcome (control, treated, inhibition, significance): 8/18 (44%), 1/18 (6%), 86%, p<0.01
Carcinogen: N-METHYL-N'-NITRO-N-NITROSOGUANIDINE, 70-25-7, N-ETHYL-N-HYDROXYETHYLNITROSAMINE, 13147-25-6, N-METHYLBENZYLNITROSAM, Carcinogen: N-METHYL-N'-NITRO-N-NITROSOGUANIDINE, 70-25-7, N-ETHYL-N-HYDROXYETHYLNITROSAMINE, 13147-25-6, N-METHYLBENZYLNITROSAM, Dose [Inhibitor]: 0, 0.7% IN DIET FOR 36 WK (STUDY DURATION: 36 WK), Route [Inhibitor]: ORAL, Species: RAT, Strain/Sex: F344/MALE, Target Tissue: Type of Lesion: THYROID GLAND: ADENOMA OR CARCINOMA, Dose [Carcinogen]: 100 MG/KG BW MNNG ONCE, 750 MG/KG BW EHEN ONCE, 0.5 MG/KG BW MBN TWICE, 40 MG/KG BW DMH 4 TIMES, 0.05% DBN IN DRINKING W
  outcome: 0/18 (0%), 6/18 (33%), -333%, p<0.05
Carcinogen: N-METHYL-N-NITROSOUREA, 684-93-5, Dose [Inhibitor]: 0.3% IN DIET FROM WEANING ONWARD (STUDY DURATION: 6 MO AFTER CARCINOGEN ADMINISTRATION), Route [Inhibitor]: ORAL, Species: RAT, Strain/Sex: SPRAGUE-DAWLEY/FEMALE, Target Tissue: Type of Lesion: MAMMARY GLAND: ADENOCARCINOMA, Dose [Carcinogen]: SINGLE INJECTION VIA DORSAL TAIL VEIN AT 5 MG/100 G BODY WEIGHT. MNU WAS WET IN 3% ACETIC ACID + DISSOLVED IN WATER (DOU
  tumour outcome (control, treated, inhibition, significance): 21/30 (70%), 22/30 (73%), -4%, not significant
Carcinogen: N-METHYL-N-NITROSOUREA, 684-93-5, Dose [Inhibitor]: 0.3% IN HIGH POLYUNSATURATED FAT DIET DAILY STARTING 29 D BEFORE CARCINOGEN TREATMENT AND CONTINUING FOR THE DURATION OF, Route [Inhibitor]: ORAL, Species: RAT, Strain/Sex: SPRAGUE-DAWLEY/FEMALE, Target Tissue: Type of Lesion: MAMMARY GLAND: ADENOCARCINOMA, Dose [Carcinogen]: 5 MG/100 G BW ONCE AT 50 D OF AGE
  tumour outcome (control, treated, inhibition, significance): 70%, 73%, -4%, not calculated
Carcinogen: URETHANE, 51-79-6, Dose [Inhibitor]: 0.75% IN DIET 1/WK FOR 24 HR AFTER OVERNIGHT FAST FOR 8 WK 1 WK AFTER CARCINOGEN TREATMENT (STUDY DURATION: 4 MO), Route [Inhibitor]: ORAL, Species: MOUSE, Strain/Sex: STRAIN-A/MALE, Target Tissue: Type of Lesion: LUNG: TYPE II ALVEOLAR CELL TUMORS, CLARA CELL TUMORS, Dose [Carcinogen]: 250 MG/KG, ONCE AT 8 WK OF AGE
  tumour outcome (control, treated, inhibition, significance): 85%, 91%, -7%, not significant
Carcinogen: URETHANE, 51-79-6, Dose [Inhibitor]: 0.75% IN DIET 1/WK FOR 24 HR AFTER OVERNIGHT FAST FOR 8 WK 1 WK AFTER CARCINOGEN TREATMENT (STUDY DURATION: 4 MO), Route [Inhibitor]: ORAL, Species: MOUSE, Strain/Sex: STRAIN-A/MALE, Target Tissue: Type of Lesion: LUNG: TYPE II ALVEOLAR CELL TUMORS, CLARA CELL TUMORS, Dose [Carcinogen]: 500 MG/KG, ONCE AT 8 WK OF AGE
  tumour outcome (control, treated, inhibition, significance): 100%, 100%, 0%, not significant
Carcinogen: URETHANE, 51-79-6, Dose [Inhibitor]: 0.75% IN DIET 1/WK FOR 24 HR AFTER OVERNIGHT FAST FOR 8 WK BEGINNING 1 WK POST CARCINOGEN TREATMENT (STUDY DURATION: 4 M, Route [Inhibitor]: ORAL, Species: MOUSE, Strain/Sex: STRAIN A/MALE, Target Tissue: Type of Lesion: LUNG: TYPE II ALVEOLAR CELL TUMORS, CLARA CELL TUMORS, Dose [Carcinogen]: 500 MG/KG, ONCE AT 8 WK OF AGE
  tumour outcome (control, treated, inhibition, significance): 100%, 97%, 3%, not significant
Carcinogen: URETHANE, 51-79-6, Dose [Inhibitor]: 0.75% IN DIET FOR 2 WK BEFORE CARCINOGEN TREATMENT (STUDY DURATION: 4 MO), Route [Inhibitor]: ORAL, Species: MOUSE, Strain/Sex: STRAIN-A/MALE, Target Tissue: Type of Lesion: LUNG: TYPE II ALVEOLAR CELL TUMORS, CLARA CELL TUMORS, Dose [Carcinogen]: 1000 MG/KG, ONCE
  outcome: 100%, 100%, o%, not significant
Carcinogen: URETHANE, 51-79-6, Dose [Inhibitor]: 0.75% IN DIET, DAILY BEGINNING 1 D AFTER CARCINOGEN TREATMENT FOR 8 WK (STUDY DURATION: 4 MO), Route [Inhibitor]: ORAL, Species: MOUSE, Strain/Sex: STRAIN-A/MALE, Target Tissue: Type of Lesion: LUNG: TYPE II ALVEOLAR CELL TUMORS, CLARA CELL TUMORS, Dose [Carcinogen]: 250 MG/KG, ONCE AT 8 WK OF AGE
  tumour outcome (control, treated, inhibition, significance): 96%, 90%, 6%, not significant
Carcinogen: URETHANE, 51-79-6, Dose [Inhibitor]: 0.75% IN DIET, DAILY BEGINNING 1 D AFTER CARCINOGEN TREATMENT FOR 8 WK (STUDY DURATION: 40 MO), Route [Inhibitor]: ORAL, Species: MOUSE, Strain/Sex: STRAIN-A/MALE, Target Tissue: Type of Lesion: LUNG: TYPE II ALVEOLAR CELL TUMORS, CLARA CELL TUMORS, Dose [Carcinogen]: 500 MG/KG, ONCE AT 8 WK OF AGE
  tumour outcome (control, treated, inhibition, significance): 100%, 100%, 0%, not significant
Carcinogen: URETHANE, 51-79-6, Dose [Inhibitor]: 300 MG/KG 1 WK AFTER CARCINOGEN DOSE 1/WK FOR 8 WK (STUDY DURATION: 4 MO), Route [Inhibitor]: INTRAPERITONEAL, Species: MOUSE, Strain/Sex: STRAIN-A/MALE, Target Tissue: Type of Lesion: LUNG: TYPE II ALVEOLAR CELL TUMORS, CLARA CELL TUMORS, Dose [Carcinogen]: 500 MG/KG, ONCE AT 8 WK OF AGE
  tumour outcome (control, treated, inhibition, significance): 97%, 100%, -3%, not significant
